Reference: patent US9458102B2 (priority 2011, dated 2016)
Like-named read-outs stand apart in the source and are kept apart here.

Tests used:
[1] = target: T1, Butyrylcholinesterase purified from human blood serum (Homo sapiens, UniProt P06276); assay: In vitro hydrolysis by serum cholinesterase (butyrylcholinesterase); assay type: in vitro ADME; conditions: 50 μM compound, 0.1M phosphate buffer pH 7.4, 37° C.; mean±SD of triplicate
T1 construct: Butyrylcholinesterase purified from human blood serum; purchased Sigma; host or cells: purified from human blood serum
Method: Compound 1 is rapidly hydrolyzed by butyrylcholinesterase in the bloodstream. Butyrylcholinesterase purified from human blood serum was used to test the resistance of the disclosed compounds to hydrolysis.
(§1) All enzymatic assays were performed with 50 μM compound in 0.1M phosphate buffer, pH 7.4, at 37° C. with stirring, unless otherwise noted. Butyrylcholinesterase stock solutions from human serum (Sigma, St. Louis, Mo.) were prepared at 100 U/mL in 0.1 M phosphate buffer, pH 7.4, and stored at −20° C. until use. Hydrolysis was monitored on an 8452A diode array spectrophotometer (Hewlett-Packard). Product peak wavelength absorption was immediately monitored upon addition of compound. Absorbances for complete hydrolysis were determined when there were no further detectable changes. […] All hydrolysis assays were performed in triplicate, and final rate constants are expressed as the mean±SD of the three individually determined rate constants. In some experiments with compound 1, samples were taken at the beginning and end of the assay to verify the hydrolysis product and the completion of the reaction by HPLC. These samples were compared to compounds 1 and 3 on a C18 column eluted with 0.1% TFA in water/acetonitrile. Activity of chymotrypsin (bovine, Worthington Biochemical Co., 190 μg/mL) was verified with 90 μM 4-nitrophenyl acetate in 0.1 M HEPES solution, pH 6.5, at 37° C. with stirring. Hydrolysis product was monitored at 404 nm for 10 min. Activity of proteinase K (from Engyodontium album, Sigma, 165 μg/mL) was verified with 16.5 mg/mL bovine serum albumin in 0.1 M phosphate buffer, pH 7.4, at 37° C. Samples were taken at time point increments up to 2 hours when the reaction reached completion. Samples were analyzed with 12% SDS-PAGE, stained with 0.1% Coomassie Blue.

chymotrypsin = target: T2, chymotrypsin (Bos taurus, UniProt P00766); assay: In vitro hydrolysis by chymotrypsin; assay type: in vitro ADME
T2 construct: purchased Worthington Biochemical Co
Method: as §1, with “In some experiments with compound 1, samples were taken at the beginning and end of the assay to verify the hydrolysis product and the completion of the reaction by HPLC. These samples were compared to compounds 1 and 3 on a C18 column eluted with 0.1% TFA in water/acetonitrile.” left out

proteinase K = target: T3, proteinase K (Parengyodontium album, UniProt P06873); assay: In vitro hydrolysis by proteinase K; assay type: in vitro ADME, Engyodontium album
T3 construct: purchased Sigma
Method: Hydrolysis products of 4-nitrophenyl acetate and BSA were detected as positive controls.
as §1

[2] = target: heteromeric rod CNG channels consisting of CNGA1 and CNGB1 subunits (Bos taurus, UniProt Q00194+Q28181); assay: biochemical; assay type: cell-based; conditions: 2 mM cGMP; for Kd: Table 1, mean±SD, not corrected for ion accumulation
Method: Currents were elicited by a voltage step protocol from 0 to −50 to +50 mV (See FIG. 1) in the presence of 2 mM cGMP or 2 mM cGMP and compound (5 μM). Time scale is shown in the lower left-hand corner of the panel and FIG. 1, and the zero current level is indicated by the dotted line.
The solid line indicates the fit of the equation for block at a single binding site.
Time scale is shown in the lower left-hand corner of the panel and FIG. 1, and the zero current level is indicated by the dotted line. […] Solid line indicates the fit of the equation for block at a single binding site.
The effectiveness of retinal rod CNG channel current block by the disclosed compounds was tested in Xenopus oocyte preparations. Excised, inside-out patches pulled from oocytes expressed heteromeric rod CNG channels consisting of CNGA1 and CNGB1 subunits. […] CNG channel currents were elicited by a voltage step protocol to −50 and +50 mV (FIG. 1). The apparent KD value at each membrane potential was estimated first by determining I+B and I−B at steady state, where I+B is the current in the presence of blocker and I−B is current in the absence of blocker, for different blocker concentrations ([B]).
Ovaries were surgically removed from adult Xenopus laevis females (Xenopus Express; Brooksville, Fla.) anesthetized with ice-cold 0.1% tricaine and 0.1% NaHCO3 solution. Oocytes were chemically released from ovarian follicles in Ca^2+-free Barth's solution (88 mM NaCl, 1 mM KCl, 2.4 mM NaHCO3, 0.82 mM MgSO4, 7.5 mM Tris, 2.5 mM sodium pyruvate, 100 U/mL penicillin, and 100 μg/mL streptomycin, pH 7.4) containing 0.1 U/mL Liberase Blendzymes (Roche, Indianapolis, Ind.). Stages IV and V oocytes were visually sorted and stored in ND-96 (96 mM NaCl, 2 mM KCl, 1.8 mM CaCl2, 1 mM MgCl2, 5 mM HEPES, 2.5 mM sodium pyruvate, 100 U/mL penicillin, and 100 μg/mL streptomycin, pH 7.4) at 16° C. Oocytes were co-injected the following day with 33 ng of CNGA1 and 67 ng of CNGB1 cRNA […] synthesized from linearized pGEM-HE expression vectors containing the channel subunit cDNA sequence (Strassmaier T & Karpen J, J Med Chem 50, 4186-4194, (2007), incorporated by reference herein) using T7 mMESSAGE mMACHINE® (Ambion, Austin, Tex.). Injected oocytes were incubated at 18° C. the first day and 16° C. for the remaining days.
(§2) Recordings from inside-out excised patches were made 3-7 days after oocyte injection on an Axopatch 1D® amplifier (Axon Instruments, Foster City, Calif.). Briefly, oocyte vitelline membranes were removed in solution containing 200 mM K aspartate, 20 mM KCl, 1 mM MgCl2, 10 mM EGTA, 10 mM HEPES, pH 7.4. Oocytes were placed in a recording chamber in a solution containing 130 mM NaCl, 2 mM HEPES, 0.02 mM EDTA, 1 mM EGTA, pH 7.6, and borosilicate glass electrodes (1-3 MΩ) were filled with identical solution. Macroscopic currents were filtered at 1 kHz and sampled at 2 kHz using pCLAMP 8.0® software (Axon Instruments). Channels were either fully activated with 2 mM or partially activated with 50 and 100 μM cGMP. […] Glass syringes and Teflon tubing were used to minimize the binding of compounds to surfaces; concentrations passing through the perfusion system were verified by absorbance.

[3] = tested on: heteromeric rod CNG channels consisting of CNGA1 and CNGB1 subunits; assay: CNG channel block at subsaturating cGMP (state dependence of block); assay type: cell-based; conditions: subsaturating cGMP (50 or 100 μM), +50 mV, normalized to KD at 2 mM cGMP
From the text: KD values at saturating cGMP were corrected for ion accumulation. Solid lines indicate simulations for exclusive closed channel blockers, using KD/KDsat=(1−Fsat)/(1−FsatI/Imax), where Fsat is the estimated fraction of open heteromeric rod channels in saturating cGMP assuming Fsat=0.3 (a), 0.56 (b), or 0.78 (c). The dotted line is a simulation for a blocker with no preference for state, or KD/KDsat=1. The dashed line is a simulation for an exclusive open channel blocker, using KD/KDsat=(I/Imax)^−1.
The solid lines in FIG. 4 marked a, b, and c represent the expected relationship between KD and the fraction of closed channels for an exclusive closed channel blocker. Each of a, b, and c uses one estimate for the probability of closed heteromeric retinal rod channels at saturating cGMP. The simulations are described in the following references: Matthews G et al, J Physiol 403, 389-405 (1988); Taylor W R & Baylor D A, J Physiol 483 567-582 (1995); and Bucossi G et al, Biophys J 72, 1165-1181 (1997), all of which are incorporated by reference herein. The dotted line represents a simulation of a blocker with no preference as to conformational of the channel. The dashed line represents a simulation for an exclusive open channel blocker.
as §2, with “absorbance. Current traces were digitally filtered at 300 Hz (Gaussian) and averaged using Clampfit 8.2® software. Currents in the absence of cGMP were subtracted from all currents analyzed. KD values were determined and expressed as the mean±SD.” for “absorbance.”

heteromeric rod CNG channels consisting of CNGA1 and CNGB1 subunits (Bos taurus, UniProt Q00194+Q28181), sequence (Q00194 whole entry): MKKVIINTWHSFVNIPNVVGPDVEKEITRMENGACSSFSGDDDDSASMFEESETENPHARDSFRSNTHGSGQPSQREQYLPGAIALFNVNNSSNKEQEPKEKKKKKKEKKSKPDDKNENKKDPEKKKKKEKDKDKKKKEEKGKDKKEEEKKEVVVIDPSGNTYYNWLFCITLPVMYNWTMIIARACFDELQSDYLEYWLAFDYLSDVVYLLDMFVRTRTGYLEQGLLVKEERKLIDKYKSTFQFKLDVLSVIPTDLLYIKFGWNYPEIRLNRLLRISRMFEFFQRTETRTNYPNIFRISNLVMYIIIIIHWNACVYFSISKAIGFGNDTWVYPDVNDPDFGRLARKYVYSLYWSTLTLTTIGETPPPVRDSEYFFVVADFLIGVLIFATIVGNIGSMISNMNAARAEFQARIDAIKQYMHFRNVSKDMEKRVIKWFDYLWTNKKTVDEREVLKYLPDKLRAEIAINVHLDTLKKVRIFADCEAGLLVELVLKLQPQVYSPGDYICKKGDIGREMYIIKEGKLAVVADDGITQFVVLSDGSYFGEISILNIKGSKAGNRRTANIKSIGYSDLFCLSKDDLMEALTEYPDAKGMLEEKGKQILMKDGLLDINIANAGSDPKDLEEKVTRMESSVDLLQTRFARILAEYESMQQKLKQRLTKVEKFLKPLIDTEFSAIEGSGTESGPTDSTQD
heteromeric rod CNG channels consisting of CNGA1 and CNGB1 subunits (Bos taurus, UniProt Q00194+Q28181), sequence (Q28181 whole entry): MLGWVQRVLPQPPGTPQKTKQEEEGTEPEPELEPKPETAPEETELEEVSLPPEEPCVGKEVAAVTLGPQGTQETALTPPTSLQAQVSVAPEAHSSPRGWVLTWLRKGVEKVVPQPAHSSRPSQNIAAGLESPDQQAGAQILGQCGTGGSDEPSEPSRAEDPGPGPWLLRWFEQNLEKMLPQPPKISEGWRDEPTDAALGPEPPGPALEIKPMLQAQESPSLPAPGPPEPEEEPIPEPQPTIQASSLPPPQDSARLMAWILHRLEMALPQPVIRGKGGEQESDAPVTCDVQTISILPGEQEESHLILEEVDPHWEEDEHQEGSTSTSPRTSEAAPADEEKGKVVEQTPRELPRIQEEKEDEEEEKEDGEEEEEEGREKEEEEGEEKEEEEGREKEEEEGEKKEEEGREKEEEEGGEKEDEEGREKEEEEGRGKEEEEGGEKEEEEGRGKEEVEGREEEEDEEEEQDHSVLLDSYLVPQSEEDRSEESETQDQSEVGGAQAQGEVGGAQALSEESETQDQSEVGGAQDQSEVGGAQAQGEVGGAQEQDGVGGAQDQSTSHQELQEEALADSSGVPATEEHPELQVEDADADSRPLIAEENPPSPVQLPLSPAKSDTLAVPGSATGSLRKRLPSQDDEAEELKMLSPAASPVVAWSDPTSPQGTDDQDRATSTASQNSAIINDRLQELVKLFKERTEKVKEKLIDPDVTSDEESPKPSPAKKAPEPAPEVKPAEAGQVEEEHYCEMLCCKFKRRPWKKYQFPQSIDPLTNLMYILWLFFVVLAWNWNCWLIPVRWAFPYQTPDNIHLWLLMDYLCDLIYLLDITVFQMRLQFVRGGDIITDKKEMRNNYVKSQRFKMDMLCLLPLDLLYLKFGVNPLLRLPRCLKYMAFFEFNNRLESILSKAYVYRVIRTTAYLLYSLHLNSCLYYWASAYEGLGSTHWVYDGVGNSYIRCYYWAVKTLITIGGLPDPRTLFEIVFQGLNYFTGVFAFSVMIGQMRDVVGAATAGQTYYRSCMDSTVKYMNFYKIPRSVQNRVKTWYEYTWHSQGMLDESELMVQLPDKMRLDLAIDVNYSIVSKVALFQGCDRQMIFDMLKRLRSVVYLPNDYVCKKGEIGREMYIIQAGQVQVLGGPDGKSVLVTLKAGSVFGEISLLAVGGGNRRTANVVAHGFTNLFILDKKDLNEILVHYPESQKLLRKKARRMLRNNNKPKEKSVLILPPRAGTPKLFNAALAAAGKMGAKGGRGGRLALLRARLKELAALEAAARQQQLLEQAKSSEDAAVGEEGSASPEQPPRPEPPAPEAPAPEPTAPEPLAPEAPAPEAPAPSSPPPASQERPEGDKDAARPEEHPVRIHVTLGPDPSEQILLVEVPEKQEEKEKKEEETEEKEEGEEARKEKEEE
T1 sequence (P06276 29-602): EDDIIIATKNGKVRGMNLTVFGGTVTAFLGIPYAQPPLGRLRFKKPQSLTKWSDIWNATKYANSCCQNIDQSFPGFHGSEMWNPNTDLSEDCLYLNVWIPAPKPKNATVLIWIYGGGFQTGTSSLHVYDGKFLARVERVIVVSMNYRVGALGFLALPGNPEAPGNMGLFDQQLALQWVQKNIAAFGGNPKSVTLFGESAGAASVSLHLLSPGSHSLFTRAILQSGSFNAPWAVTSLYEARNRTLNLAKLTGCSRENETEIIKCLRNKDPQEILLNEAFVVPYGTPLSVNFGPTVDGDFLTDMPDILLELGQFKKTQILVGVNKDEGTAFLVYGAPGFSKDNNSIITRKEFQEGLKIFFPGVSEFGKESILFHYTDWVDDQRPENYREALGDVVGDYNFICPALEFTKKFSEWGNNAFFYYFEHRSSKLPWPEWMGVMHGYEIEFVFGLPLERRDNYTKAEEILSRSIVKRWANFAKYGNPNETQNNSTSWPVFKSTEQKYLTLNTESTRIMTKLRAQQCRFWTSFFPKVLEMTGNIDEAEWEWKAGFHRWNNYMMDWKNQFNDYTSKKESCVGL
T3 sequence (P06873 106-384): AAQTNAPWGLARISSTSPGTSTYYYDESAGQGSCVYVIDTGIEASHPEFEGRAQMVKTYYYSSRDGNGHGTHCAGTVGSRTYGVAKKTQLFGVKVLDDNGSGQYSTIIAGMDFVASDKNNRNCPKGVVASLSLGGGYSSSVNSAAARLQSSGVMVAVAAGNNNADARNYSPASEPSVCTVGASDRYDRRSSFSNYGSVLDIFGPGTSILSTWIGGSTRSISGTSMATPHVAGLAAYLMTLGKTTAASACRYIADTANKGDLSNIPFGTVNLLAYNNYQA

SMILES	Hydrolysis rate [1] [nmol/min/mg]	hydrolysis products with chymotrypsin (chymotrypsin)	hydrolysis products with proteinase K (proteinase K)	voltage dependence of block ([2]; +50 vs −50 mV)	Kd ([2]; +50 mV, read-out: KD(+50)) [µM]	Kd ([2]; −50 mV, read-out: KD(−50)) [µM]	state dependence of block (KD vs fraction of closed channels) [3]
CCCCCCCCNc1ccc(C(=O)NCCN(C)C)cc1 [Compound 7, 4-(Octylamino)-N-(2-(dimethylamino)ethyl)benzamide]	1.2 ± 0.5	not able to generate any detectable hydrolysis products	not able to generate any detectable hydrolysis products	appreciably less voltage dependent than compound 1, 6, and 8			
CCCCNc1ccc(C(=O)NCCN(C)C)cc1 [Compound 6, 4-(Butylamino)-N-(2-(dimethylamino)ethyl)benzamide]	8.4 ± 3.5	not able to generate any detectable hydrolysis products	not able to generate any detectable hydrolysis products		4.4 ± 2	28.6 ± 13.1	
CCCCNc1ccc(C(=O)OCCN(C)C)cc1 [Compound 1, 2-(dimethylamino)ethyl 4-(butylamino)benzoate, reference compound]	132 ± 10						better fit the results expected of a closed channel blocker
